{
  "source": "patent US4022903A",
  "about": "“α-Thienyl and α-substituted thienyl, phenyl and substituted phenyl cyclopropylomethanols useful as biodegradable insecticides and mollusicides” (Abbott Laboratories, priority 1975, dated 1977)",
  "key": {"[1]": {"tested_on": "Adult snails", "assay": "Molluscicide activity, adult snails", "assay_type": "in vivo", "settings": "0/10-2/10 inactive, 3/10-7/10 partially active, 8/10-10/10 active"}, "[2]": {"tested_on": "newly hatched snails of the strain B. glabrata", "assay": "Molluscicide activity, newly hatched snails", "assay_type": "in vivo", "settings": "24 hours, 26° C, 0/10-2/10 inactive, 3/10-7/10 partially active, 8/10-10/10 active"}, "[3]": {"assay": "Mice oral LD 50", "settings": "mouse, in vivo, orally"}, "[4]": {"tested_on": "mites", "assay": "Leaf Disc Mite Assay", "assay_type": "in vivo", "settings": "48 hours, adult mites", "procedure": "A stock solution of 50,000 ppm is prepared. The solution consists of 25 percent DMF, 75 percent IPA and approximately 4 percent Tween 20. The stock solution is diluted (1:20) to a concentration of 2500 ppm using as a diluent 70 percent acetone containing 0.1 percent Tween 20. The 2500 ppm solution is used for the initial screen.\nLeaf discs 15 mm in diameter are cut from fresh Henderson Bush Lima Bean plants. Discs are then dropped in the appropriate dilution of the chemical being tested.\nThe leaf discs are allowed to dry and then placed on moistened filter paper in appropriately labeled petri dishes. Ten adult mites are placed on each disc. Nine discs are used for each compound. Percent mortality is determined after 48 hours.\nWhen a compound is rated very active, 1:10 dilutions are made of the 2500 stock."}},
  "data": [
    {"molecule": "α-(5-Chloro-2-Thienyl)4-Chlorophenylcyclopropylmethanol [No. 4]", "values": [
      {"measurement": "Molluscicide, mortality, Adult", "setting": "[1]; 1 ppm", "result": "0/10"},
      {"measurement": "Molluscicide, mortality, Adult", "setting": "[1]; 10 ppm", "result": "0/10"},
      {"measurement": "Molluscicide, mortality, New", "setting": "[2]; 1 ppm", "result": "0/10"},
      {"measurement": "Molluscicide, mortality, New", "setting": "[2]; 10 ppm", "result": "0/10"}
    ]},
    {"molecule": "Cc1ccc(C(O)(c2ccc(Cl)s2)C2CC2)cc1", "note": "(stereo not drawn) [compound 7]", "values": [
      {"measurement": "LD50", "setting": "[3]", "result": "> 1000", "unit": "mg/kg"},
      {"measurement": "Molluscicide, mortality, Adult", "setting": "[1]; 1 ppm", "result": "0/10"},
      {"measurement": "Molluscicide, mortality, Adult", "setting": "[1]; 10 ppm", "result": "9/10"},
      {"measurement": "Molluscicide, mortality, New", "setting": "[2]; 1 ppm", "result": "4/10"},
      {"measurement": "Molluscicide, mortality, New", "setting": "[2]; 10 ppm", "result": "10/10"}
    ]},
    {"molecule": "OC(c1ccc(C(F)(F)F)cc1)(c1ccc(Cl)s1)C1CC1", "note": "(stereo not drawn) [compound 5]", "values": [
      {"measurement": "Mites, percent mortality (activity rating)", "setting": "[4]; 500 ppm", "result": "A (50-80 percent mortality is rated active (A))"},
      {"measurement": "Mites, percent mortality (activity rating)", "setting": "[4]; 2500 ppm", "result": "VA (80-100 percent mortality are rated very active (VA))"},
      {"measurement": "LD50", "setting": "[3]", "result": "> 1000", "unit": "mg/kg"},
      {"measurement": "Molluscicide, mortality, Adult", "setting": "[1]; 1 ppm", "result": "1/10"},
      {"measurement": "Molluscicide, mortality, Adult", "setting": "[1]; 10 ppm", "result": "0/10"},
      {"measurement": "Molluscicide, mortality, New", "setting": "[2]; 1 ppm", "result": "8/10"},
      {"measurement": "Molluscicide, mortality, New", "setting": "[2]; 10 ppm", "result": "10/10"}
    ]},
    {"molecule": "OC(c1ccc(Cl)cc1)(c1cccs1)C1CC1", "note": "(stereo not drawn) [compound 1]", "values": [
      {"measurement": "Mites, percent mortality (activity rating)", "setting": "[4]; 2500 ppm", "result": "SIA (25-50 percent is slightly active (SIA))"},
      {"measurement": "Molluscicide, mortality, Adult", "setting": "[1]; 1 ppm", "result": "0/10"},
      {"measurement": "Molluscicide, mortality, Adult", "setting": "[1]; 10 ppm", "result": "6/10"},
      {"measurement": "Molluscicide, mortality, New", "setting": "[2]; 1 ppm", "result": "6/10"},
      {"measurement": "Molluscicide, mortality, New", "setting": "[2]; 10 ppm", "result": "10/10"}
    ]},
    {"molecule": "OC(c1ccc(Br)cc1)(c1ccc(Cl)s1)C1CC1", "note": "(stereo not drawn) [compound 8]", "values": [
      {"measurement": "Mites, percent mortality (activity rating)", "setting": "[4]; 2500 ppm", "result": "VA (80-100 percent mortality are rated very active (VA))"},
      {"measurement": "Molluscicide, mortality, Adult", "setting": "[1]; 1 ppm", "result": "3/10"},
      {"measurement": "Molluscicide, mortality, Adult", "setting": "[1]; 10 ppm", "result": "9/10"},
      {"measurement": "Molluscicide, mortality, New", "setting": "[2]; 1 ppm", "result": "10/10"},
      {"measurement": "Molluscicide, mortality, New", "setting": "[2]; 10 ppm", "result": "10/10"}
    ]},
    {"molecule": "OC(c1ccc(Cl)cc1)(c1ccc(Cl)s1)C1CC1", "note": "(stereo not drawn) [compound 4]", "values": [
      {"measurement": "Mites, percent mortality (activity rating)", "setting": "[4]; 500 ppm", "result": "A (50-80 percent mortality is rated active (A))"},
      {"measurement": "Mites, percent mortality (activity rating)", "setting": "[4]; 2500 ppm", "result": "VA (80-100 percent mortality are rated very active (VA))"},
      {"measurement": "Molluscicide, mortality, Adult", "setting": "[1]; 1 ppm", "result": "0/10"},
      {"measurement": "Molluscicide, mortality, Adult", "setting": "[1]; 10 ppm", "result": "9/10"},
      {"measurement": "Molluscicide, mortality, New", "setting": "[2]; 1 ppm", "result": "7/10"},
      {"measurement": "Molluscicide, mortality, New", "setting": "[2]; 10 ppm", "result": "10/10"}
    ]},
    {"molecule": "OC(c1ccc(C(F)(F)F)cc1)(c1cccs1)C1CC1", "note": "(stereo not drawn) [compound 2]", "values": [
      {"measurement": "Mites, percent mortality (activity rating)", "setting": "[4]; 2500 ppm", "result": "SIA (25-50 percent is slightly active (SIA))"},
      {"measurement": "Molluscicide, mortality, Adult", "setting": "[1]; 1 ppm", "result": "0/10"},
      {"measurement": "Molluscicide, mortality, Adult", "setting": "[1]; 10 ppm", "result": "6/10"},
      {"measurement": "Molluscicide, mortality, New", "setting": "[2]; 1 ppm", "result": "4/10"},
      {"measurement": "Molluscicide, mortality, New", "setting": "[2]; 10 ppm", "result": "10/10"}
    ]},
    {"molecule": "OC(c1ccc(F)cc1)(c1ccc(Cl)s1)C1CC1", "note": "(stereo not drawn) [compound 9]", "values": [
      {"measurement": "LD50", "setting": "[3]", "result": "> 300", "unit": "mg/kg"},
      {"measurement": "Molluscicide, mortality, Adult", "setting": "[1]; 1 ppm", "result": "0/10"},
      {"measurement": "Molluscicide, mortality, Adult", "setting": "[1]; 10 ppm", "result": "9/10"},
      {"measurement": "Molluscicide, mortality, New", "setting": "[2]; 1 ppm", "result": "5/10"},
      {"measurement": "Molluscicide, mortality, New", "setting": "[2]; 10 ppm", "result": "10/10"}
    ]}
  ]
}
